Reference: US6448405B1, “Steroid receptor modulator compounds and methods” (Ligand Pharmaceuticals Incorporated, priority 1994, dated 2002)
pEC50, pIC50, pKi: −log10 of the molar value.

Key:
[1] = target: T1, human progesterone receptor A form (PR-A) (Homo sapiens, UniProt P06401); experiment: PR binding assay, baculovirus extract, [3H] progesterone; details: read-out: PR Binding Ki
T1 sequence (P06401 1-769 isoform P06401-2): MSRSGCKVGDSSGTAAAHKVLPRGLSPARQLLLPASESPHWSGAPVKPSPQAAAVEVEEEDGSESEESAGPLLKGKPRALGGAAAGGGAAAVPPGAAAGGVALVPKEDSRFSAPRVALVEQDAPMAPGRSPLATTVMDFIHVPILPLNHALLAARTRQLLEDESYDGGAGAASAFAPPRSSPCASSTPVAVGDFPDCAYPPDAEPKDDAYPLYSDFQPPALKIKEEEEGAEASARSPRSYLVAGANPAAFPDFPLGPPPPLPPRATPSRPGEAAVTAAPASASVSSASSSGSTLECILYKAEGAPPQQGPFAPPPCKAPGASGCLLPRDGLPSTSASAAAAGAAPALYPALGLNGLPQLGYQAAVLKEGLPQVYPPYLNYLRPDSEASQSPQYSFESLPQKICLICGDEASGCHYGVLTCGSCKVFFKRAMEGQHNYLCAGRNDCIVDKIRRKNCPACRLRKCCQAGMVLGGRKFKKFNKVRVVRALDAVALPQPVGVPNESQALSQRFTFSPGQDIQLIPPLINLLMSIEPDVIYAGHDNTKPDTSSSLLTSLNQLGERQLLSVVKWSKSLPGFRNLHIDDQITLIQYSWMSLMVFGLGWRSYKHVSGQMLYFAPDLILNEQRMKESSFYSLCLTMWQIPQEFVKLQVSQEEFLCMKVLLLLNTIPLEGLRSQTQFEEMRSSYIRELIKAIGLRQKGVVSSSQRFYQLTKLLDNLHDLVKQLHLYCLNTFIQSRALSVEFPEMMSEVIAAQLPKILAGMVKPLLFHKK

[2] = test system: pregnancy (implantation sites) in female mice (ICR strain); experiment: Implantation assay (antiprogestin activity); type: in vivo, mouse; details: R5020 1.0 mg per day
Experimental: Mating was assumed to have taken place at 02.00 h, time 0.
Compound 150 was dissolved in sesame oil (50 mg/mL) and kept at room temperature before use. […] Control animals received an equivuivalent volume of the control vehicle, sesame oil, alone.
The animals were sacrificed, and autopsies were carried out at Day 8 of pregnancy, and numbers of implantation sites counted and recorded, and are shown in Table 7 below. Each group consisted of between 5 and 7 animals.

human PR-B = target: T2, human PR-B (Homo sapiens, UniProt P06401); experiment: Co-transfection assay, PR agonist and antagonist activity, CV-1 cells; type: cell-based;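 note: luciferase reporter driven by a hormone response element, co-transfected with human PR-B into CV-1 monkey kidney cells, agonists raise and antagonists lower the reporter signal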
T2 construct: expressed in transfected cells; host or cells: CV-1 cells (African green monkey kidney fibroblasts), transient transfection
T2 sequence (P06401 1-933): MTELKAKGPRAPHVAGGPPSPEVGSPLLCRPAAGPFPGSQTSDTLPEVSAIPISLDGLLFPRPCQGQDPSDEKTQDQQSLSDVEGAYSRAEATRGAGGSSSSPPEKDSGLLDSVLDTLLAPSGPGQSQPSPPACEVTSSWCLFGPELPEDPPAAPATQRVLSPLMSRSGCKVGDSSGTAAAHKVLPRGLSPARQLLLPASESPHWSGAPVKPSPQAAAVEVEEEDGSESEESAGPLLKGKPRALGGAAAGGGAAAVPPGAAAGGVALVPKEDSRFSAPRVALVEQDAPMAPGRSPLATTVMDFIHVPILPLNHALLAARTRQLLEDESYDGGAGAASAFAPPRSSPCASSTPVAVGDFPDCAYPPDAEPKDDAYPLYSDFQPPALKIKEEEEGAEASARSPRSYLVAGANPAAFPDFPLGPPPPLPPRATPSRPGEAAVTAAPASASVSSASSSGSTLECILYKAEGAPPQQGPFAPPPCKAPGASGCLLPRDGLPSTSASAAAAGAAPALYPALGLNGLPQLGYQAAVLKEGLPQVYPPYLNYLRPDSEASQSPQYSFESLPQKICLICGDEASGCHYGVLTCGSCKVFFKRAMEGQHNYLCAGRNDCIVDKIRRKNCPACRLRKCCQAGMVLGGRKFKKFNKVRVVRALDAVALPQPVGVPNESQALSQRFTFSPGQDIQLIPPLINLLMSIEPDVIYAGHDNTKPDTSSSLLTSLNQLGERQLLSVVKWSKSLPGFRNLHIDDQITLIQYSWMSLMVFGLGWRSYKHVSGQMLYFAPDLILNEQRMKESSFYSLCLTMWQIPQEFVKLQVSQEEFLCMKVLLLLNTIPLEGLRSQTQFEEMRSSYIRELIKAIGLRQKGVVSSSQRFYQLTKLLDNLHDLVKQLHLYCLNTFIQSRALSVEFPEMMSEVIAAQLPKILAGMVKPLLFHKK

PR, AR, ER, GR and MR = experiment: cis-trans or co-transfection assay, steroid receptor panel (cross-reactivity); type: cell-based, human; details: as seen in the Tables

CC1=CC(C)(C)Nc2ccc(-c3cccc(C#N)c3)cc21 [Compound 150, 6-(3-Cyanophenyl)-1,2-dihydro-2,2,4-trimethylquinoline]
pKi [1]: 7.77 | effect on pregnancy rate with simultaneous injection of PR agonist R5020 [2]: reversed to the control level | pEC50 (human PR-B; agonist mode, EC50, read-out: PR Agonist CV-1 Cells Potency): 5.49 | pIC50 (human PR-B; read-out: PR Antagonist CV-1 Cells Potency): 7.62 | steroid receptor selectivity profile (PR, AR, ER, GR and MR): highly selective PR antagonists
